Results published in the NIST ThermoML archive (doi:10.1021/je400054m).
Numbers after ± are expanded uncertainties.

Tests used:
[1] = Molar enthalpy of transition or fusion; conditions: DSC
[2] = DTA

Compound	Molar enthalpy of transition or fusion ([1]; Crystal)	Normal melting temperature ([2]; Crystal)	Molar enthalpy of transition or fusion ([1]; Crystal 2)	Triple point temperature ([2]; Crystal 2)	Molar enthalpy of transition or fusion ([1]; Crystal 1)	Molar enthalpy of transition or fusion ([1]; Crystal 3)	Normal melting temperature ([2]; Crystal 1)	Triple point temperature ([2]; Crystal 3)
CC(=O)[O-].[Li+] [lithium acetate]	2.87 ± 0.186 kcal/mol	283.10 ± 0.7 °C						
CCCCCCCCCC(=O)[O-].[Li+] [lithium decanoate]			0.111 ± 0.0287 kcal/mol	309.65 ± 0.7 K				
CCCCCCCCCCCC(=O)[O-].[Li+] [lithium dodecanoate]			1.66 ± 0.112 kcal/mol	346.05 ± 0.7 K	6.78 ± 0.43 kcal/mol	0.138 ± 0.0335 kcal/mol	227.40 ± 0.7 °C	314.45 ± 0.7 K
O=C[O-].[Li+] [lithium methanoate]			0.451 ± 0.043 kcal/mol	508.55 ± 0.7 K	3.84 ± 0.239 kcal/mol		272.20 ± 0.7 °C	
CCCCCCCCC(=O)[O-].[Li+] [lithium nonanoate]			1.92 ± 0.129 kcal/mol	348.95 ± 0.7 K	6.13 ± 0.382 kcal/mol		251.10 ± 0.7 °C	
CCC(=O)[O-].[Li+] [propionic acid, lithium salt]			0.817 ± 0.0645 kcal/mol	530.55 ± 0.7 K	3.81 ± 0.239 kcal/mol		331.00 ± 0.7 °C	

Results, then the compound that gave them:

Molar enthalpy of transition or fusion ([1]; Crystal)	Normal melting temperature ([2]; Crystal)	Molar enthalpy of transition or fusion ([1]; Crystal 2)	Triple point temperature ([2]; Crystal 2)	Molar enthalpy of transition or fusion ([1]; Crystal 1)	Molar enthalpy of transition or fusion ([1]; Crystal 3)	Normal melting temperature ([2]; Crystal 1)	Triple point temperature ([2]; Crystal 3)	Compound
4.96 ± 0.311 kcal/mol	316.80 ± 0.7 °C							CCCC(=O)[O-].[Li+] [lithium butanoate]
		1.49 ± 0.1 kcal/mol	316.55 ± 0.7 K	5.93 ± 0.382 kcal/mol		274.40 ± 0.7 °C		CCCCCCC(=O)[O-].[Li+] [lithium heptanoate]
5.49 ± 0.359 kcal/mol	287.20 ± 0.7 °C							CCCCCC(=O)[O-].[Li+] [lithium hexanoate]
5.73 ± 0.359 kcal/mol	264.30 ± 0.7 °C							CCCCCCCC(=O)[O-].[Li+] [lithium octanoate]
		0.941 ± 0.0693 kcal/mol	323.45 ± 0.7 K	5.25 ± 0.335 kcal/mol		301.10 ± 0.7 °C		CCCCC(=O)[O-].[Li+] [lithium pentanoate]
		3.3 ± 0.21 kcal/mol	364.55 ± 0.7 K	6.76 ± 0.43 kcal/mol		235.50 ± 0.7 °C		CCCCCCCCCCC(=O)[O-].[Li+] [lithium undecanoate]
